Data reported in US20220220123A1, “AMORPHOUS AND CRYSTALLINE FORMS OF RELUGOLIX” (DR. REDDY'S LABORATORIES LIMITED, priority 2019, published 2022).

Test: storage stability of solid forms of relugolix
Format: physicochemical

| Compound | stability of the crystalline form on storage (2-8° C.) | stability of the crystalline form on storage (25° C. and 60% RH (relative humidity)) | stability of the crystalline form on storage (40° C. and 75% RH (relative humidity)) | stability (found stable; in words) (no storage conditions or duration printed) |
| --- | --- | --- | --- | --- |
| CONC(=O)Nc1ccc(-c2sc3c(c2CN(C)C)c(=O)n(-c2ccc(OC)nn2)c(=O)n3Cc2c(F)cccc2F)cc1 [crystalline form R1] | stable for at least three months | stable for at least three months | stable for at least three months |  |
| CONC(=O)Nc1ccc(-c2sc3c(c2CN(C)C)c(=O)n(-c2ccc(OC)nn2)c(=O)n3Cc2c(F)cccc2F)cc1 [amorphous relugolix] |  |  |  | stable |
